Results: patent US20240343761A1, “APELINERGIC MACROCYCLES AND USES THEREOF” (priority 2021, published 2024)
Where two headings read alike, the source gives them in different places. Numbered stars: 1 amine (or outer) side, 2 acyl side, 3 side chain; on linkers, the order of the positions; unused ones are H or OH. Bridge positions count the residues as written; N and C are the ends. Square brackets hold non-standard residues; d marks the D form. Peptide text beside a SMILES is read from it. * marks the point of attachment. X3 = O=C([C@H](CCCCNCCC=[*:3])N[*:1])[*:2]; Phe(4-Br) = N[C@@H](Cc1ccc(Br)cc1)C(=O)O; AllylGly = C=CC[C@H](N)C(=O)O; pGlu = O=C1CC[C@@H](C(=O)O)N1; Nle = CCCC[C@H](N)C(=O)O; Bn = c1ccc(C*)cc1

How the values were obtained:
[1] = Rat plasma stability (half-life in vitro); format: in vitro ADME; settings: male, Sprague-Dawley, rat, plasma, Table I, rat plasma, 37° C., up to 24 h; for half-life at […]: read-out: Half-life in vitro (converted)
Experimental: Plasma was obtained from male Sprague-Dawley rats by collecting blood in heparin tube and centrifugating at 13,000 rpm to remove blood cells. The isolated plasma was stored at −80° C. and thawed right before the test. In 96-well plate, 6 μL of peptide solution at 1 mM was incubated with 27 μL of plasma at 37° C. in an oven equipped with orbital shaker. Tightly fitted caps were used to seal the wells to avoid water evaporation during incubation. […] A 96-well UPLC plate was put at the bottom to collect the samples. Both plates were centrifuged at 500 g for 10 min at 4° C. to accelerate the filtration. […] The quantity of remaining peptide was plotted into an exponential one-phase decay curve using GraphPad Prism 8 which allowed to calculate peptide half-life. The results were presented as mean±SEM of at least 3 independent experiments, each done in simplicate.
The percentage of remaining analogue was calculated by doing the ratio between AU of compound and AUC of internal standard. Half-lives were extrapolated from curves.

[2] = biological target: T1, hAPJ receptor (Homo sapiens, UniProt P35414); test: BRET-based β-arrestin2 recruitment assay in HEK293 cells; format: cell-based
T1 construct: expressed in transfected cells; host or cells: HEK293, transient transfection with PEI
T1 sequence (P35414 1-380): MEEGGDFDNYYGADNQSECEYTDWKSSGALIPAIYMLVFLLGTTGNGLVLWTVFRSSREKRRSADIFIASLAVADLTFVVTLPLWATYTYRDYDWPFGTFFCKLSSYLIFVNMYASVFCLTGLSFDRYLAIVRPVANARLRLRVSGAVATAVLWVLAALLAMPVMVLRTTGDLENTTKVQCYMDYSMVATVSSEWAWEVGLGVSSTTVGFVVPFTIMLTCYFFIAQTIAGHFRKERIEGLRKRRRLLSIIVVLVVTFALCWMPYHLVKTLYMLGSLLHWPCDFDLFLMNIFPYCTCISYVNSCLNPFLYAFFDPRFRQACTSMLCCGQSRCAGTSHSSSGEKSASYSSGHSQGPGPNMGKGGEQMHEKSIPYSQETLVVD
Experimental: (§1) HEK293 cells were cultivated in high glucose DMEM medium having 10% FBS, 100 U/mL penicillin/streptomycin, 2 mM glutamine, and 20 mM HEPES at 37° C. in T175 flasks under humidified chamber at 5% CO2. […] Cells were then washed with phosphate-buffered saline (PBS) and 90 μL Hanks' balanced salt solution was added in each well. Then, cells were stimulated with analogs at concentrations ranging from 10^−5 M to 10^−11 M for 5 min at 37° C. (Gαi1) or for 30 min at room temperature (β-arrestin2). After stimulation, 5 μM of coelanterazine 400A was added to each well and the plate was read using the BRET^2 filter set of a GeniosPro plate reader (Tecan, Austria). The BRET ratio was determined as GFP10em/RlucIIem. Data were plotted and EC50 values were determined using GraphPad Prism 8. Each data point represents the mean±SEM of at least three different experiments each done in triplicate.

[3] = biological target: T2, human APJ (hAPJ) (Homo sapiens, UniProt P35414); test: Competitive radioligand binding ([125I][Nle75,Tyr77][Pyr1]-Ape13) on membranes of HEK293 cells stably expressing human APJ
T2 construct: expressed in transfected cells; cell membranes
T2 sequence (P35414 1-380): T1 sequence (P35414 1-380)
Experimental: HEK293 cells stably expressing YFP-tagged human APJ were cultured in DMEM medium supplemented with 10% FBS, at 37° C. under a humid atmosphere maintaining 5% CO2. Antibiotic G418 (400 μg/mL) was added to maintain a selection pressure for APJ-expressing cells while penicillin/streptomycin (0.1%) were used to prevent bacterial contamination.
Binding experiments were performed on cell membranes of HEK293 stably expressing the YFP-tagged human APJ receptor. Cells were frozen at −80° C. for storage and quickly thawed right before the experiments (1 min at 37° C.). […] The precipitate (cell membranes) was suspended in binding buffer (50 mM Tris-HCl, 0.2% BSA, pH 7.4). Binding assays were run in 96-well plates. […] (820 Ci/mmol)^3 and test ligand with a range of concentrations from 10^−1 to 10^−11 M in a total volume of 200 μL for 1 h at room temperature.
The incubation mixtures were filtered through a glass fiber filter (Millipore, pre-absorbed of PEI 0.5% for 2 h at 4° C.) to remove unbound ligands, and the filter membranes were washed three times with 170 μL cold binding buffer (4° C.). The γ emission was measured using a 1470 Wizard γ-counter from PerkinElmer (Waltham, USA) (80% efficiency).

[4] = biological target: T1, hAPJ receptor; test: BRET-based Gαi1 activation assay in HEK293 cells; format: cell-based
Experimental: as §1

## CCCC[C@H](NC(=O)[C@@H]1CCCN1C(=O)CNC(=O)[C@H](CCCCN)NC(=O)[C@@H]1CC(=O)NCCCC[C@H](NC(=O)[C@H](CCCNC(=N)N)NC(=O)[C@@H]2CCC(=O)N2)C(=O)N[C@@H](CCCNC(=N)N)C(=O)N[C@@H](CC(C)C)C(=O)N[C@@H](CO)C(=O)N1)C(=O)N1CCC[C@H]1C(=O)N[C@@H](Cc1ccccc1)C(=O)O [Compound 17, Pyr-R-c[Lys-R-L-S-Asp]c-K-G-P-Nle-P-F] ([pGlu]RKRLSDKGP[Nle]PF-OH; lactam 3-7)
[1]
  half-life at 0.182 mM: 0.1 h

## CC(C)C[C@@H]1NC(=O)[C@H](CCCNC(=N)N)NC(=O)[C@@H](N)CC=CC[C@@H](C(=O)N[C@@H](CCCCN)C(=O)NCC(=O)N2CCC[C@H]2C(=O)N[C@@H](Cc2cccc3ccccc23)C(=O)O)NC(=O)[C@H](CO)NC1=O [Compound 35, NH2-c[X-R-L-S-X]c-K-G-P-1Nal]
[1]
  half-life at 0.182 mM: 0.3 ± 0.1 h

## CCCC[C@@H]1NC(=O)[C@@H](N)CC=CC[C@@H](C(=O)N[C@@H](CCCCN)C(=O)NCC(=O)N2CCC[C@H]2C(=O)N[C@@H](CCCC)C(=O)N2CCC[C@H]2C(=O)N[C@@H](Cc2ccccc2)C(=O)O)NC(=O)[C@H](CO)NC(=O)[C@H](CC(C)C)NC1=O [Compound 24, NH2-c[X-Nle-L-S-X]c-K-G-P-Nle-P-F]
[1]
  half-life at […]: 3.8 ± 0.5 h

## CCCC[C@H](NC(=O)[C@@H]1CCCN1C(=O)CNC(=O)[C@H](CCCCN)NC(=O)[C@@H]1CCCC[C@H](NC(=O)[C@H](CCCNC(=N)N)NC(=O)[C@@H]2CCC(=O)N2)C(=O)N[C@@H](CCCNC(=N)N)C(=O)N[C@@H](CC(C)C)C(=O)N[C@@H](CO)C(=O)N1)C(=O)N1CCC[C@H]1C(=O)N[C@@H](Cc1ccccc1)C(=O)O [Compound 13, Pyr-R-c*[X-R-L-S-X]c-K-G-P-Nle-P-F]
[2]; HEK293, Table V, read-out: ß-arr2 Emax
  Emax: 75%
[2]; Table I, read-out: EC50 β-arr2
  EC50: 199 ± 65 nM
[2]; Table V, read-out: ß-arr2 EC50
  EC50: 199 ± 65 nM
[3]; Table I, mean ± SEM, read-out: Ki binding
  Ki: 4.3 ± 0.3 nM
[3]; Table V, read-out: Binding Ki
  Ki: 4.3 ± 0.3 nM
[4]; HEK293, Table V, read-out: Gαi1 Emax
  Emax: 102%

## CC(C)C[C@@H]1NC(=O)[C@@H]2CCCN2C(=O)[C@@H](NC(=O)[C@H](CO)NC(=O)[C@H](CCCNC(=N)N)NC(=O)[C@H](CCCNC(=N)N)NC(=O)[C@@H]2CCC(=O)N2)CCC(=O)NCCCC[C@@H](C(=O)N[C@@H](CCCNC(=N)N)C(=O)N[C@H](C(=O)N2CCC[C@H]2C(=O)N[C@@H](Cc2ccc(Br)cc2)C(=O)N2CCC[C@H]2C(=O)O)C(C)C)NC(=O)[C@H](Cc2c[nH]cn2)NC1=O [Compound 92, Pyr-R-R-S-[E-P-L-H-K]-R-V-P-4BrF-P] ([pGlu]RRSEPLHKRVP[Phe(4-Br)]P-OH; lactam 5-9)
[2]
  EC50: 439 ± 91 nM
[3]; Binding Ki
  Ki: 15 ± 2 nM
[4]
  EC50: 16 ± 3 nM

## CC(C)C[C@@H]1NC(=O)[C@H](CCCNC(=N)N)NC(=O)[C@@H](N)CC=CC[C@@H](C(=O)N[C@@H](CCCCN)C(=O)NCC(=O)N2CCC[C@H]2C(=O)N[C@@H](Cc2ccc(OCc3ccccc3)cc2)C(=O)O)NC(=O)[C@H](CO)NC1=O [Compound 37, NH2-c[X-R-L-S-X]c-K-G-P-TyrOBn]
[1]
  half-life at 0.182 mM: 0.5 ± 0.1 h

## CCCC[C@H](NC(=O)[C@@H]1CCCN1C(=O)CNC(=O)[C@H](CCCCN)NC(=O)[C@@H]1Cc2cncn2CC=CC[C@H](N)C(=O)N[C@@H](CCCNC(=N)N)C(=O)N[C@@H](CC(C)C)C(=O)N[C@@H](CO)C(=O)N1)C(=O)N1CCC[C@H]1C(=O)N[C@@H](Cc1ccccc1)C(=O)O [Compound 25, NH2-c[X-R-L-S-Alh]c-K-G-P-Nle-P-F]
[1]
  half-life at 0.182 mM: 2 ± 0.3 h

## CCCC[C@H](NC(=O)[C@@H]1CCCN1C(=O)CNC(=O)[C@H](CCCCN)NC(=O)[C@H](Cc1c[nH]cn1)NC(=O)[C@H](CO)NC(=O)[C@@H]1CC=CC[C@H](NC(=O)[C@@H]2CCC(=O)N2)C(=O)N2CCC[C@H]2C(=O)N[C@@H](CCCNC(=N)N)C(=O)N1)C(=O)N1CCC[C@H]1C(=O)N[C@@H](Cc1ccccc1)C(=O)O [Compound 3, Pyr-c[X-P-R-X]c-S-H-K-G-P-Nle-P-F] ([pGlu][AllylGly]PR[AllylGly]SHKGP[Nle]PF-OH; staple 2-5)
[3]; Ki binding
  Ki: 1250 ± 284 nM

## N=C(N)NCCC[C@H](N)C(=O)N[C@H]1CCCCNCCC=CC[C@@H](C(=O)N[C@H](Cc2ccc(OCc3ccccc3)cc2)C(=O)O)NC(=O)[C@@H]2CCCN2C1=O [Compound 57, NH2-R-c[K(N-butenyl)-P-X]-(D-Tyr(Obn))] (H-R[X3]P[AllylGly][dY](Bn)-OH; staple 2-4)
[3]; Ki binding
  Ki: > 10000 nM

## CC(C)C[C@@H]1NC(=O)[C@H](CCCNC(=N)N)NC(=O)[C@@H](N)CC=CC[C@@H](C(=O)N[C@@H](CCCCN)C(=O)NCC(=O)N2CCC[C@H]2C(=O)N[C@@H](Cc2ccc3ccccc3c2)C(=O)O)NC(=O)[C@H](CO)NC1=O [Compound 36, NH2-c[X-R-L-S-X]c-K-G-P-2Nal]
[1]
  half-life at 0.182 mM: 0.4 ± 0.1 h

## CCCC[C@H](NC(=O)[C@@H]1CCCN1C(=O)CNC(=O)[C@H](CCCCN)NC(=O)[C@@H]1CC=CC[C@H](NC(=O)[C@@H]2CCC(=O)N2)C(=O)N2CCC[C@H]2C(=O)N[C@@H](CCCNC(=N)N)C(=O)N[C@@H](CC(C)C)C(=O)N[C@@H](CO)C(=O)N1)C(=O)N1CCC[C@H]1C(=O)N[C@@H](Cc1ccccc1)C(=O)O [Compound 4, Pyr-c[X-P-R-L-S-X]c-K-G-P-Nle-P-F] ([pGlu][AllylGly]PRLS[AllylGly]KGP[Nle]PF-OH; staple 2-7)
[3]; Ki binding
  Ki: 148 ± 21 nM

## CC(C)C[C@@H]1NC(=O)[C@H](CCCNC(=N)N)NC(=O)[C@@H](N)CC=CC[C@@H](C(=O)N[C@@H](CCCCN)C(=O)NCC(=O)N2CCC[C@H]2C(=O)N[C@@H](Cc2ccc(OCc3ccccc3)c(C3CCCC3)c2)C(=O)O)NC(=O)[C@H](CO)NC1=O [Compound 38, NH2-c[X-R-L-S-X]c-K-G-P-cypTyr(OBn)]
[1]
  half-life at 0.182 mM: 11.3 ± 1 h

## CC(=O)N[C@@H](CCCCN)C(=O)N[C@@H](Cc1ccccc1)C(=O)N[C@@H](CCCNC(=N)N)C(=O)N[C@@H](CCCNC(=N)N)C(=O)N[C@@H](CCC(N)=O)C(=O)N[C@@H](CCCNC(=N)N)C(=O)N1CCC[C@H]1C(=O)N[C@@H](CCCNC(=N)N)C(=O)N[C@@H](CC(C)C)C(=O)N[C@H]1CCC(=O)NCCCC[C@@H](C(=O)N2CCC[C@H]2C(=O)N[C@@H](C)C(=O)N2CCC[C@H]2C(=O)N[C@@H](Cc2ccccc2)C(=O)O)NC(=O)[C@H](C)NC(=O)[C@H](Cc2c[nH]cn2)NC1=O [Compound 62, Ac-K-F-R-R-Q-R-P-R-L-[E-H-A-K]-P-A-P-F] (Ac-KFRRQRPRLEHAKPAPF-OH; lactam 10-13)
[2]
  EC50: 1260 nM
[3]; Ki binding
  Ki: 11 ± 7 nM

## CCCC[C@H](NC(=O)[C@@H]1CCCN1C(=O)CNC(=O)[C@H](CCCCN)NC(=O)[C@@H]1CC=CCCC(=O)N[C@@H](CCCNC(=N)N)C(=O)N[C@@H](CC(C)C)C(=O)N[C@@H](CO)C(=O)N1)C(=O)N1CCC[C@H]1C(=O)N[C@@H](Cc1ccccc1)C(=O)O [Compound 22, Ø-c[X-R-L-S-X]c-K-G-P-Nle-P-F]
[1]
  half-life at […]: 2 ± 0.2 h

## CCCC[C@H](NC(=O)[C@@H]1CCCN1C(=O)CNC(=O)[C@@H]1CC=CC[C@H](N)C(=O)N[C@@H](CCCNC(=N)N)C(=O)N[C@@H](CC(C)C)C(=O)N[C@@H](CO)C(=O)N1)C(=O)O [Compound 31, NH2-c[X-R-L-S-X]c-G-P-Nle] (H-[AllylGly]RLS[AllylGly]GP[Nle]-OH; staple 1-5)
[3]; Ki (APJ affinity)
  Ki: 0.6 nM
[3]; Ki binding
  Ki: > 10000 nM
